Structures can show the parent of a compound that is named as a salt. Where two headings read alike, the source gives them in different places.

The values below come from patent US20050260264A1, “Dosage form for delivery of multiple drug forms” (priority 2004, published 2005).

Data set [1] is described as follows: osmotic pressure of the drug. It counts as physicochemical.
Data set [2] can be described thus: solubility of the pharmaceutical agent in water. It counts as physicochemical. The procedure:
As defined herein, the solubility of a pharmaceutical agent is determined by adding the pharmaceutical agent to stirred or agitated de-ionized water maintained in a constant temperature bath at a temperature of 37° C. until no more pharmaceutical agent dissolves. The resulting solution saturated with the pharmaceutical agent is then filtered, typically under pressure through a 0.8-micron Millipore filter, and the concentration of the pharmaceutical agent in the solution is measured by any appropriate analytical method including gravimetric, ultraviolet spectrophometry, chromatography, and the like. The solubility of the pharmaceutical agent is measured at saturated concentration.

Consider `CNC(=C[N+](=O)[O-])NCCSCc1ccc(CN(C)C)o1.Cl` [Ranitidine HCl, ranitidine hydrochloride], for which the “osmotic pressure of the drug” value in data set [1] was determined as 95 atmospheres. For the molecule `CN1CCN(CCCN2c3ccccc3Sc3ccc(Cl)cc32)CC1` [prochlorperazine base], the “solubility in water (aqueous solubility)” value in data set [2] is on record as 0.1 to 1 mg per milliliter.

In the case of `CN1CCN(CCCN2c3ccccc3Sc3ccc(Cl)cc32)CC1` [prochlorperazine edisilate], in data set [2], the “solubility in water (aqueous solubility)” value was “about 500 mg per milliliter”. On to `CCC(=O)O[C@](Cc1ccccc1)(c1ccccc1)[C@H](C)CN(C)C` [propoxyphene base], for which, in data set [2], the “solubility in water (in words)” value is given as “only slightly soluble”. On to `CCC(=O)O[C@](Cc1ccccc1)(c1ccccc1)[C@H](C)CN(C)C` [propoxyphene hydrochloride], for which, in data set [2] (hydrochloride), the “solubility in water (in words)” value is “freely soluble”.
